This is an account of results in US20130131126A1, “DERIVATIVES OF 1,4-DIHYDROPYRIDINE POSSESSING ANTIVIRAL EFFICACY” (JSC Grindeks, priority 2010, published 2013).

This test has as its system influenza virus (H3N2). The test is described as follows: Antiviral efficacy against influenza virus on MDCK cell line in vitro. The test is classed as cell-based. The following applies: MDCK cells infected with influenza virus (H3N2); compound present from 1 hour after infection until end of culture; over a wide concentration range.
As for `COC(=O)C1C(C(=O)OCC(=O)[O-])=C(C)NC(C)=C1C(=O)OCC(=O)[O-].[Na+].[Na+]` [disodium 2,6-dimethyl-1,4-dihydropyridine-4-methoxycarbonyl-3,5-bis-(carbonyloxyacetate)], the “antiviral efficacy against influenza” value is “effective against influenza”.

Take `COC(=O)C1=C(C)NC(C)=C(C(=O)OCC(=O)[O-])C1.[Na+]` [sodium 2,6-dimethyl-3-methoxycarbonyl-1,4-dihydropyridine-5-carbonyloxyacetate]: the “antiviral efficacy against influenza” value was “effective against influenza”.

`CCOC(=O)C1=C(C)NC(C)=C(C(=O)OCC(=O)[O-])C1.[Na+]` [sodium 2,6-dimethyl-3-ethoxycarbonyl-1,4-dihydropyridine-5-carbonyloxyacetate]: the “antiviral efficacy against influenza” value is recorded as “effective against influenza”.
